Earlier results as cited in patent US11174243B2, “Succinate forms and compositions of Bruton's tyrosine kinase inhibitors” (Sunesis Pharmaceuticals, Inc., priority 2016, dated 2021).
Read-outs that look alike come from different tables or passages of the source.

Conditions: mean, cited from earlier work

## CC#CC(=O)N1CCC[C@H]1c1nc(-c2ccc(C(=O)Nc3ccccn3)cc2)c2c(N)nccn12 [Acalabrutinib]
100 mg BID (steady state)
  AUC0-24: 1850 ng·h/mL
  Cmax: 827 ng/mL

## C=CC(=O)N1CCC[C@@H](n2nc(-c3ccc(Oc4ccccc4)cc3)c3c(N)ncnc32)C1 [Ibrutinib]
560 mg (single dose)
  Cmax: 141 ng/mL
